Laboratory results from patent US6593365B1, “Diflunisal esters and related compounds” (The University of Queensland, priority 1997, dated 2003).
Values joined by “and” are separate entries in the source; they are usually repeats but may differ in a detail not shown here. Equal values may be shown once. Read-outs that look alike come from different tables or passages of the source. Each block holds one compound with its values, some of them ahead of it.

Legend:
[1] = system: human platelet rich plasma; assay: Platelet aggregation induced by arachidonic acid; format: cell-based; details: compound 600 µM, 37° C., arachidonic acid 200 µM
Procedure: Platelet aggregation studies were carried out using a single channel Lumiaggregometer (Chrono-Log Company, Haverton, Pa.) at 37° C. using human platelet-rich and platelet-poor plasma. Platelet-rich plasma (PRP) with a platelet concentration of […] (measured with a Coulter counter) was prepared by centrifuging 3.8% citrated […] (1:9) at 1,500 rpm using a (Beckman) benchtop centrifuge at room temperature for 15 minutes. Platelet-poor plasma (PPP) was prepared by further centrifuging residual blood from platelet-rich plasma at 3,000 rpm for 30 minutes. Platelet-poor plasma was also confirmed b y Coulter counting for platelet content.
Platelet aggregation studies were preceded by pipetting 0.4 mL platelet-rich plasma into a stirred aggregometer tube and calibrate to 90% of recorder. Platelet-poor plasma was set to calibrate at 10% of recorder. Platelet aggregation was initiated by the addition of a arachidonic acid (Sigma) or ADP (Sigma).
10 mM solutions of each compound (TABLE 6) were prepared in 1 mL of normal saline solution (containing 4% BSA) before use. An aliquot (400 μL) of platelet-rich plasma was pipetted into a stirred aggregometer tube at 37° C. and 30 μL of test sample added simultaneously. This mixture was preincubated for varying period (3 to 45 minutes), then arachidonic acid (AA) was added (final conc.=200 μM) to initiate platelet aggregation. If no aggregation occurred, 20 μM ADP was added to confirm the vitality of the platelets (if the platelets are vital, ADP will induce this AA-test sample-plasma mixture to aggregate). This procedure is necessary to investigate whether the non-aggregation phenomenon is due to drug inhibition or simply due to inviable platelets (unable to respond to AA). The degree of aggregation was measure by calculating the area under the turbidimetric response curve (AUC).

[2] = system: ischaemic/reperfusion rat livers; assay: Ischaemic/reperfusion injury in rat livers (LDH release, bile production); set-up: species or system Female Sprague-Dawley rats; details: C is the ED50 molar dose
Procedure: Female Sprague-Dawley rats (220-250 g) were anaesthetised by interperitoneal injection of pentobarbital sodium (60 mg/kg, Boehringer Ingelhein). […] The bile duct was cannulated with a polyethylene tubing (PE-10, I.D. 0.28 mm; Clay Adams, New Jersey) and bile was collected into pre-weighed microcentrifuge tubes at 70 min intervals (in the middle of experiment and the end of experiment). The portal vein was then cannulated using a 16 G intravenous catheter and the liver was perfused via this cannula with 2% BSA Krebs-Henseleit bicarbonate buffer (pH 7.4) and oxygenated using a membrane oxygenator comprising of silastic tubing and ventilated with carbogen (95% O2/5% CO2). The perfusion system used was recirculating and employed a peristaltic pump (Cole-Parmer, Illinois).
Following a 10 min pre-ischaemia perfusion, the perfusion flow was stopped for 30 min at 37° C. with the liver being kept moist. At the end of this ischaemic phase, a known concentration of the aspirin analogue or diflunisal ester's solution (in 2% BSA Krebs-Henseleit buffer) was added into the perfusate prior to the perfusion being resumed for another 100 min. Outflow fractions were collected up to 140 min. A biochemistry autoanalyzer (Hitachi, model 747; Tokyo, Japan) was employed to determine the level of enzyme (LDH) release.
The degree of ischaemic/reperfusion injury was measured by calculating the area under the LDH release ([…]) versus time curve (AUC). […] The efficacy of each compound is expressed in terms of ED50 which represents the molar dose for 50% reduction of LDH release compared to the control. The comparison of bile production between the first stage of experiment (the first 70 min) and the second stage of experiment (the last 70 min) is also used as index of liver function during an experiment.

[3] = system: OH. generated from Fenton's reaction; assay: Luminol-dependent chemiluminescence induced by Fenton's reagent; format: biochemical; set-up: unit of the concentration uncertain; details: F: CL induced by Fenton's reagent, n=3
Procedure: CL was measured with a luminometer (Model 1250; LKB Wallac, Finland) and recorded in millivolts (Cheung et al., 1984, supra).
Fenton's reagent (FeSO4 and H2O2) was used as a standard reaction mixture for the generation of OH. (Lai and Piette, 1979, Tetrahedron Lett. 775-778):
Fe^+++H2O2→Fe^++++OH.+OH (1)
The initial reaction mixture consisted of 20 μL of 3.8 mM FeSO4.7H2O, 20 μL of 5 mg/mL luminol (Sigma), and 2 mL of 1 mM phosphate buffer in a 3 mL polystyrene cuvette. Twenty microlitres of 320 mM H2O2 was added to initiate the Fenton's reaction.
A known concentration of the ethanolic (≲1%) aspirin analogue or diflunisal ester's stock solution was added to the 1 mM phosphate buffer to prepare solutions with a final concentration of 50 μM, 250 μM or 500 μM. Twenty microlitres of these test samples was added onto the cuvette which contained the initial reaction mixture. H2O2 was added to induce CL reaction. The luminol-dependent CL response was recorded in mV by a potentiometric recorder.
(§1) CL measurements were always done in triplicate and Student's t-test used to assess the statistical significance of the difference between measurements.

[4] = system: superoxide generated from xanthine oxidase plus xanthine reaction; assay: Xanthine oxidase plus xanthine-induced chemiluminescence; format: biochemical; set-up: dose or concentration left out as unconfirmed; details: X: CL induced by xanthine oxidase plus xanthine
Procedure: To clarify the role of aspirin analogues and diflunisal esters in free radicals scavenging, the Fenton's reagent was replaced by an artificial superoxide generating system in the CL inhibition studies. This cell-free system consisted of 100 μg/mL of xanthine oxidase (Sigma) plus 0.5 μM xanthine (Sigma) (Rosen and Klebanoff, 1976, J Clin Invest 58 50-60; Cheson et al., 1976, J Clin Invest 58 789-796).
as §1

[5] = In vitro non-enzymatic hydrolysis in Krebs-Henseleit buffer; format: physicochemical; details: for Hydrolysis rate constant (k): pH 7.4, 25° C., n=5; for half-life: pH 7.4, read-out: Half life (t1/2) (converted)
Procedure: These experiments were carried out both in Krebs-Henseleit buffer containing either no protein or 2% w/v BSA (bovine serum albumin, fraction V, Sigma) at pH 7.4 and 25±1° C.
Solutions of the derivatives in Krebs buffer (10 mL) was prepared in siliconised glass tubes. Each solution was sonicated for 5 minutes and centrifuged for 5 minutes (3000 g) at 25° C. to ensure maximum dissolution and to sediment any undissolved precipitate. About 7.5 mL of the supernatant was then transferred to a clean siliconised test tube and a 100 μL aliquot was removed and assayed. […] The rate of non-enzymatic hydrolysis (k) for each derivative was then estimated using the following equation: […]
where C1 is the concentration of the ester at any time (t), and C0 is the concentration of the ester at time zero. The half-life (t½) was determined using the formula: […]

[6] = system: in-situ perfused rat liver; assay: In-situ rat liver perfusion bolus studies, moments and dispersion model analysis (Example 3); format: in vitro ADME, Sprague-Dawley rats; details: for CV^2 of reference solute / F (hepatic availability) of reference solute / MTT of reference solute: statistical moments analysis, n=12; for MTTE (mean transit time of blood): MTTE=MTTW/(+1), =0.59
Procedure: Mature female Sprague-Dawley rats were obtained from the University of Queensland Animal Breeding Facility and weighed between 180-270 grams. The animals were given access to a standard laboratory diet prior to experiment. Rats were anaesthetised by interperitoneal injection of pentobarbital sodium (60 mg/kg, Boehringer Ingelhein). […] The bile duct was cannulated with PE10 (Clay Adams, New Jersey). 0.025 gm/L taurocholic acid (Sigma Co., USA.) was dissolved in perfusate to stimulate bile production. The portal vein was then cannulated using a 16 G intravenous catheter and the liver was perfused via this cannula with 2% BSA Krebs-Henseleit bicarbonate buffer (pH 7.4) and oxygenated using a silastic tubing lung ventilated with carbogen (95% O2/5% CO2). The perfusion system used was non-recirculating and employed a peristaltic pump (Cole-Parmer, Illinois).
The animal was placed in a temperature controlled perfusion cabinet at 37° C. Liver viability was assessed by oxygen consumption, bile flow, diflunisal esters' extraction and macroscopic appearance.
Perfusions were made at 30 mL/min in each liver. After a 10 minute perfusion stabilization period, injectate (50 μL) containing Evans Blue (3 mg/mL) and [^3H]-water in a saturated solution of the particular O-acyl diflunisal ester or pregenerated diflunisal (which was injected as parent compound) in 2% BSA Krebs-Henseleit buffer, was injected into the liver with outlet samples collected via a fraction collector over one minute.
Aliquots (100 μL) of pooled perfusate samples were taken for Evans Blue spectrophotometric analysis and [^3H]-water scintillation counting before adjusting pH. These pooled samples were then acidified to pH 2.0 by addition of 1 M HCl and extracted into 2.5 volumes of ether. […] The ether fraction was then removed and reduced to approximately 100 μL by evaporation under air and prepared as before for HPLC analysis. A known concentration of each buffer solution of ester was concurrently extracted and assayed with the perfusate samples to assess the degree of spontaneous hydrolysis occurring over the duration of the extraction procedure. This non-enzymatic hydrolysis was converted for in the analysis. The total recovery of diflunisal esters extracted using this technique was >90%.
The F, MTT and CV^2 for the diflunisal esters (or pregenerated DF) and the reference solutes (EB and [^3H]-water) were determined from the outflow concentration versus time profile using equation (1)-(4), with the assistance of the Moments Calculator 2.2 program for Macintosh computer developed by Robert Purves (Purves RD, 1994, J. Pharm. Sci. 83 202-205). [formula] [formula]
where Q is the perfusate flow rate, D is the dose of diflunisal esters administered. The area under the concentration-time curve (AUC) and the first moment curve (AUMC) were estimated by the trapezoidal rule integration with appropriate modification for tail (Mellick et al., 1996, submitted for publication). [formula]
The moment data was further examined using the dispersion model of hepatic elimination which defines F of an extracted solute by the equation (Roberts et al., 1990, J. Pharmacokin. Biopharm. 18 209-234): [formula]
a={square root over (1+4RNDN)} (6)
DN is the dispersion number which describes the spread of solute residence times in the liver following bolus input and equal half the normalized variance for a non-extracted reference indicator [formula]
RN is the efficiency number which characterises the elimination of solute by the liver and is defined by the equation: [formula]
(Gillette, 1971, Ann. N. Acad. Sci. 179 43-61)), and Q is the perfusate flow rate. If F for a solute and the CV^2 for a non-extracted reference solute (eg. EB) are known, we can solve for “a” using equation (5) and then for “RN” using equation (6).
The dispersion model expressions (Roberts et al., 1990) for MTT and CV^2 are presented in equations (8) and (9). [formula] [formula] […]

[7] = fitting to one-compartment dispersion model, individual curves 1-12 and Mean S.E. (n = 12)
[8] = fitting to one-compartment dispersion model, individual curves 1-12 and Mean S.E. (n = 12), listed as 3H -water

CL inhibition (%) [4]: 0.9 ± 0.1%
Compound: CCCCCCC(=O)Oc1ccc(-c2ccc(F)cc2F)cc1C(=O)O [Compound C7D, n-heptanoyldiflunisal]
Platelet Aggregation (% of control) ([1]; preincubation 3 minutes): 97.5 ± 0.9 % of control
Platelet Aggregation (% of control) ([1]; preincubation 5 minutes): 96.3 ± 1.1 % of control
Platelet Aggregation (% of control) ([1]; preincubation 8 minutes): 91.4 ± 0.1 % of control
Platelet Aggregation (% of control) ([1]; preincubation 10 minutes): 91.1 ± 2.1 % of control
Platelet Aggregation (% of control) ([1]; preincubation 12 minutes): 90.8 ± 0.8 % of control
Platelet Aggregation (% of control) ([1]; preincubation 15 minutes): 89.7 ± 2.1 % of control
Platelet Aggregation (% of control) ([1]; preincubation 20 minutes): 77.3 ± 3.1 % of control
Platelet Aggregation (% of control) ([1]; preincubation 25 minutes): 57.3 ± 0.1 % of control
Platelet Aggregation (% of control) ([1]; preincubation 45 minutes): 0 % of control
log 1/C [2]: 4.52
CL inhibition (%) ([3]; 0.5 (unit uncertain) compound, U = undetectable): 21.3 ± 3.7%
CL inhibition (%) ([3]; 2.5 (unit uncertain) compound): 57.3 ± 1.9%
CL inhibition (%) ([3]; 5 (unit uncertain) compound): 87.4 ± 3.4%

Hydrolysis rate constant (k) ([5]; Krebs-Henseleit buffer 0% BSA, U = Undetectable): 0.0052 ± 0.0032 hour^1
Hydrolysis rate constant (k) ([5]; Krebs-Henseleit buffer 2% BSA): 0.0013 ± 0.0005 hour^1
half-life ([5]; bovine, Krebs-Henseleit buffer with 2% w/v BSA): 22.2 days
half-life ([5]; protein-free Krebs-Henseleit buffer, Krebs-Henseleit buffer 0% BSA, first half life, t1/2=0.693/k, U = Undetectable): 5.55 days
Compound: CCCCCCC(=O)Oc1ccccc1C(=O)O [Compound C7SA, n-heptanoylsalicylic acid]

CV^2 of reference solute [6]: 1.15±0.11
F (hepatic availability) of reference solute [6]: 0.95±0.04
MTT of reference solute [6]: 9.04 ± 0.65 s
Compound: Cc1cc(-c2ccc(/N=N/c3ccc4c(S(=O)(=O)O)cc(S(=O)(=O)O)c(N)c4c3O)c(C)c2)ccc1/N=N/c1ccc2c(S(=O)(=O)O)cc(S(=O)(=O)O)c(N)c2c1O [EB]

MTTE (mean transit time of blood) ([6]; individual curves 1-12 and Mean S.E. (n = 12)): 7.36 ± 0.87 s
DN (dispersion number) [6, 7]: 0.29±0.03
MTTW (mean transit time of the whole liver) [6, 7]: 11.70 ± 1.39 s
DN (dispersion number) ([6]; from CV^2 of the moments analysis): 0.36±0.04
CV^2 of reference solute [6]: 0.71±0.08
F (hepatic availability) of reference solute [6]: 0.87±0.02
MTT of reference solute [6]: 14.42 ± 0.79 s
Compound: [3H]O[3H] [[^3H]-water]
MTTE (mean transit time of blood) ([6]; individual curves 1-12 and Mean S.E. (n = 12), listed as 3H -water): 10.09 s and 9.52 s and 11.67 s and 13.40 s and 5.11 s and 4.99 s and 4.23 s and 4.95 s and 6.39 s and 6.33 s and 5.52 s and 6.08 s
DN (dispersion number) [6, 8]: 0.33 and 0.23 (3×) and 0.27 and 0.36 and 0.22 and 0.58 and 0.24 (2×) and 0.26
MTTW (mean transit time of the whole liver) [6, 8]: 16.05 s and 15.15 s and 18.56 s and 21.31 s and 8.12 s and 7.94 s and 6.73 s and 7.87 s and 10.16 s and 10.07 s and 8.78 s and 9.66 s
